“Also recorded” adds a separate entry of the source.
Assays:
[1] = system: ATP release; experiment: ATP release induced by Alu RNA from primary human RPE cells (ATP-dependent luciferase assay); type: cell-based; conditions: cell culture supernatant, FIG. 16, 42
Excerpt: Cell culture supernatant was collected from mock or Alu RNA treated cells, with or without d4T, and ATP was detected using an ATP-dependent luciferase assay.
(FIG. 16) Primary human RPE cells treated with Alu RNA for the times indicated release ATP. […] ATP was detected using an ATP-dependent luciferase assay.

[2] = target: T1, human P2X7 receptor (Homo sapiens, UniProt Q99572); experiment: bzATP-induced YO-PRO-1 dye uptake in HEK293 cells stably expressing the human P2X7 receptor; type: cell-based
T1 construct: expressed in transfected cells
T1 sequence (Q99572 1-595): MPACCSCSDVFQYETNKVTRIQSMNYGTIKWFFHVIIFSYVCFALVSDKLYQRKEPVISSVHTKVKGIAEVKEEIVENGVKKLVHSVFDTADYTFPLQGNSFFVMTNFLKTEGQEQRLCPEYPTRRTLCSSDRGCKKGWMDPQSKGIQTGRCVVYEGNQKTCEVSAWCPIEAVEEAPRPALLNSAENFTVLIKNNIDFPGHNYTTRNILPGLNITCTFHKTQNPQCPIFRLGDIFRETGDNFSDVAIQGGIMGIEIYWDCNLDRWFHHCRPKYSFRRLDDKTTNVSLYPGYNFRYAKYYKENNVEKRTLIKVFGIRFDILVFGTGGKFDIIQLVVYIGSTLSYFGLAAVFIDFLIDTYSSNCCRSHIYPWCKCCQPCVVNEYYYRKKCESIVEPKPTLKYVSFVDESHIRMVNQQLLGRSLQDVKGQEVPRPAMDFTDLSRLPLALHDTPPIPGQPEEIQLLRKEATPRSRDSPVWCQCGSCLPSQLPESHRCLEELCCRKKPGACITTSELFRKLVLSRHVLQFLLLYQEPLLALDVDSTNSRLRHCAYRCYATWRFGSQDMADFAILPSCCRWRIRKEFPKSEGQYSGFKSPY
Excerpt: Finally, P2X7 activation is associated with the formation of a large pore that is permeable to molecules of up to ˜1000 Da (Adinolfi et al., 2005; Cheewatrakoolpong et al., 2005; Surprenant et al., 1996).

[3] = system: Caspase-1; experiment: LPS/ATP-induced Caspase-1 activation in mouse bone marrow-derived macrophages (Western blot); type: cell-based
Excerpt: To produce FIG. 9, cell culture supernatants were collected after (i) no treatment, (ii) LPS treatment, or (iii) LPS/ATP treatment of mouse bone marrow-derived macrophages and run on Western blotting probing with antibodies for Caspase-1 and IL-18.
Further, the present inventors also tested whether NRTIs blocked inflammasome activation by LPS/ATP, which is not known to signal via reverse transcriptase (Mariathasan et al., 2004; Mariathasan et al., 2006; Martinon et al., 2002).
FIGS. 38-41 illustrate that NRTIs block LPS/ATP-induced inflammasome activation. […] Representative images of n=3-4 experiments are provided in each of FIGS. 38-41.

[4] = system: IRAK4; experiment: Western blot of IRAK4 phosphorylation in primary mouse RPE cells transfected with Alu RNA; type: cell-based; conditions: FIG. 44
[5] = system: HeLa cells; experiment: MTS proliferation assay of HeLa cells treated with Alu RNA expression plasmid (pAluA); type: cell-based, human; conditions: pAluA vs pUC19, d4T co-administration, FIG. 2
[6] = system: IRAK4; experiment: LPS/ATP-induced IRAK4 phosphorylation in primary human RPE cells; type: cell-based; conditions: d4T 25/100 uM, FIG. 8
Excerpt: (§1) Vinculin was used as the loading control in the gel of FIG. 8. Additionally, as shown, LPS and ATP activate the NLRP3 inflammasome only in combination.
(§2) The loading control in FIG. 8 is vinculin. Furthermore, as shown, LPS and ATP activate the NLRP3 inflammasome only in combination, thus treatment with one or the other alone is useful as a control for this experiment.

[7] = system: mitochondrial reactive oxygen species (mtROS); experiment: MitoSox assay of mitochondrial ROS in primary human RPE cells with Alu expressing plasmid; type: cell-based; conditions: pAluA vs pUC19, after 15 hours, FIG. 15, 54
Experimental: After 15 hours cells were co-stained for mtROS (red) and for cell count, nuclei (blue; Hoechst DNA stain).
In FIG. 54, mitochondrial reactive oxygen species (ROS) were visualized with MitoSox (Red) and cell nuclei with Hoechst (Blue).

[8] = system: Casp-1; experiment: LPS/ATP-induced Casp-1 activation in primary human RPE cells; type: cell-based; conditions: d4T 25/100 uM, FIG. 8
Excerpt: as §1, §2

[9] = system: Caspase-1; experiment: Western blot of Caspase-1 activation in primary human RPE cells transfected with Alu RNA; type: cell-based
Experimental: The bottom row is a vinculin loading control. […]
FIG. 7 is a Western blot showing that Alu RNA causes Caspase-1 maturation in primary human RPE cells at 24 hours after Alu administration (top, middle lane, lower band), which is blocked with co-treatment with azidothymidine (AZT), cordycepin, and abacavir (ABC) (50-100 uM; lanes 3-8 from left). The loading control vinculin is shown on the bottom.
FIG. 21 is a Western blot of Caspase-1 activation (p20 subunit) in primary human RPE cells transfected with Alu RNA±me-d4T.
FIG. 35 is a Western blot of Caspase-1 activation in human RPE cells transfected with Alu RNA±NRTIs (3TC, AZT, ABC).
The bottom row in FIG. 5 is a vinculin loading control. […]
Next, FIG. 7 provides evidence of AZT, cordycepin, and abacavir inhibition of inflammasome activation by Alu RNA. Indeed, Alu RNA causes NLRP3 inflammasome activation, which is marked by processing of the enzyme Caspase 1. FIG. 7 is a Western blot showing that Alu RNA causes Caspase-1 maturation in primary human RPE cells at 24 hours after Alu administration (top, lane 2, lower band), which is blocked with co-treatment with azidothymidine (AZT), cordycepin, and abacavir (ABC) (50-100 uM; Lanes 3-8). Again, the loading control vinculin is shown on the bottom.

[10] = system: IRAK4; experiment: Western blot of IRAK4 phosphorylation in primary human RPE cells transfected with Alu RNA; type: cell-based; conditions: FIG. 34
Excerpt: Alu RNA mediates RPE cell death via activation of Caspase 1 and the NLRP3 inflammasome (Tarallo et al., 2012).

Cc1cn([C@H]2C=C[C@@H](CO)O2)c(=O)[nH]c1=O [d4T, 2′3′ dideoxythymidine]
ATP release induced by Alu RNA [1]: does not block release of ATP; also recorded: did not affect ATP release; also recorded: does not block Alu-induced ATP release | YO-PRO-1 iodide entry stimulated with bzATP ([2]; HEK293 human P2X7, pre-incubated 30 minutes, fluorescence 485/515 nm at t=30 minutes, FIG. 19): blocked YO-PRO-1 iodide entry | P2X7-mediated YO-PRO-1 dye uptake (fluorescence) induced by bzATP ([2]; bzATP 100 μM, 64 μM for both drugs, p<0.05, n=12, FIG. 43): inhibited | P2X7-dependent uptake of YO-PRO1 after addition of bzATP ([2]; human P2X7-overexpressing HEK293 stable cell line, concentration not given): inhibited P2X7-dependent uptake of the fluorescent dye YO-PRO1 | Caspase-1 activation (active p20 band) induced by LPS/ATP ([3]; mouse bone marrow-derived macrophages, supernatants, 100 uM, FIG. 9): inhibit | LPS/ATP-induced Caspase-1 maturation ([3]; primary mouse bone marrow-derived macrophages, FIG. 38): inhibited; also recorded: blocked Caspase-1 | IRAK4 phosphorylation [4]: blocks phosphorylation of IRAK4 | Cell viability / cell death induced by Alu overexpression (MTS) [5]: prevented cell death induced by Alu overexpression | IRAK4 phosphorylation induced by LPS/ATP [6]: blocks | Mitochondrial ROS (mtROS) caused by Alu expression (MitoSox) [7]: blocks mitochondrial ROS (mtROS) production; also recorded: reduces mitochondrial ROS caused by Alu expression; also recorded: prevents pAlu-induced mitochondrial ROS generation | Casp-1 activation induced by LPS/ATP [8]: blocks | Caspase-1 maturation caused by Alu RNA ([9]; 24 hours after Alu administration, d4T 100 uM, FIG. 5): blocked | Caspase-1 activation / cleavage (p20) induced by Alu RNA ([9]; concentration not given, FIG. 21, 34, 35, 51-53): block Caspase 1 activation by Alu RNA; also recorded: prevents Caspase 1 cleavage to its active 20 kDa form | IRAK4 phosphorylation [10]: blocks phosphorylation of IRAK4
